How the values were obtained:
Type in all cases: cell-based, porcine
[1] = system: CD59 on polarized primary RPE; experiment: Surface CD59 staining; details: RPE with A2E; short treatment with desipramine
Procedure: AlexaFluor secondary antibodies were used at 1:500. Filters were mounted under coverslips on glass slides under VECTASHIELD (Vector labs), sealed and visualized with Andor Revolution XD spinning disk confocal microscope using 60×1.4 NA or 100×1.49 NA oil objectives with identical exposures and gains for each antibody. Quantification of surface CD59 staining was performed using Imaris.

[2] = system: acetylated tubulin in polarized primary RPE; experiment: Immunofluorescence staining of acetylated and tyrosinated tubulin; details: inhibitors 10 μM for 3 h, 48 h after A2E treatment
Procedure: ALEXAFLUOR secondary antibodies were used at 1:500 and rhodamine-phalloidin (Cytoskeleton, PHDR1) at 1:200. Filters were mounted under coverslips on glass slides under […] (Vector labs), sealed and visualized with Andor Revolution XD spinning disk confocal microscope using a 60×1.4 NA oil objective with identical exposures and gains for each antibody. Acetylated tubulin-labeled stable microtubules (≥5 μm in length) after nocodazole treatment were analyzed manually in the Surpass mode of Imaris (Bitplane).
We performed two initial screens: first, we compared the ability of functional inhibitors (fluoxetine and amitriptyline) with that of the lone structural ASMase inhibitor zoledronic acid in decreasing acetylated tubulin. Here, polarized RPE monolayers with or without A2E were treated with one of the three inhibitors (10 μM, 3 h). Desipramine as a positive control. At the end of the incubation period, cells were fixed and stained for acetylated tubulin, imaged and the amount of acetylated tubulin in the cells was quantified. Second, we evaluated three additional drugs (sertraline, astemizole and fexofenadine) for their abilities to increase autophagy in the RPE. Cells with or without bisretinoids were transfected with mRFP-GFP-LC3, starved to induce autophagy, treated with drugs and imaged as in FIG. 9D.

primary RPE monolayers [3] = experiment: Lysosome exocytosis (surface LAMP2) after 10% normal human serum; details: RPE with A2E, complement attack; short treatment with desipramine
Procedure: Cells were rinsed in recording medium (HBSS with 4.5 g/L glucose, 20 mM HEPES) and incubated with ionomycin or […] normal human serum (Quidel) for 10 min at 37° C. Filters were immediately transferred to ice and analyzed for surface LAMP2 or β-hex activity (see below).
Cells were stained with mouse monoclonal antibody to the lumenal domain of Lamp2 (Serotec, MCA2558, 1:500) (48) or C5b-9 (Novus, NBP1-05120, 1:100) at 4° C. for 30 min. The antibody was diluted in PBS supplemented with Ca^2+ and Mg^2++1% BSA. Cells were then fixed with 2% PFA for 5 min on ice, permeabilized, and stained for ZO-1 as detailed above. Alexa-conjugated secondary antibodies (INVITROGEN) were used at 1:500 for 30 min. Cells were imaged by confocal microscopy (Andor Revolution XD) using a 60× 1.4 NA oil objective. For each set of experiments, the laser power, voltage and offset were identical for a given fluorophore. Quantification of Lamp2 staining was performed by obtaining the total fluorescence using the surface tool in Imaris (Bitplane).

[4] = system: EGFP-LC3-labeled autophagosomes in primary RPE; experiment: Live imaging of EGFP-LC3 autophagosome trafficking (spinning disk, Boolean gating); details: desipramine 10 μM for 3 h
Procedure: RPE cells were transfected with EGFP-LC3 or tandem fluorescent mRFP-GFP-LC3 (Addgene) using the AMAXA NUCLEOFECTOR II (Lonza). Approximately 1.5 million cells and 5 μg of plasmid DNA were used for each transfection. Cells were plated either on serum-coated glass-bottom dishes (Mattek) or TRANSWELL filters at confluence. Live imaging of autophagosome traffic and autophagic flux were performed on the Revolution XD spinning disk microscopy system (Andor) equipped with the Yokogawa CSU-X1 confocal spinning disk head, Nikon Eclipse Ti inverted microscope surrounded by an Okolab cage incubator, iXon x3 897 EM-CCD camera, Andor laser combiner with four solid state lasers at 405, 488, 561, and 640 nm and corresponding band-pass filter sets (Sutter), and ASI motorized stage with piezo-Z for rapid Z-stack acquisition. Andor IQ2 software was used for image acquisition and Imaris x64 (Bitplane) for image analysis. For live imaging, cells were serum starved for 2 h to induce autophagy and rapid z-stacks were acquired using the 100×1.49 NA Apo TIRF objective (Nikon) for ˜50 frames at 37° C. Trafficking data was collected from three separate transfections for a total of at least 12-30 movies captured for treatment. During image acquisition care was taken to maintain the same laser power, exposure and electron-multiplying gain settings. Trafficking analysis was carried out using the Spots and Tracks modules of the Imaris software (Liu et al., 2010). After background subtraction (using the background subtraction algorithm and identical automatic threshold for all images) and smoothing (Gaussian algorithm with identical threshold settings for all images), Spots and Tracks algorithms were used to identify vesicles and follow them through time and cell-space to obtain total track length and track displacement. […] Data were analyzed using either a two-tailed t-test or one-way ANOVA followed by Bonferroni or Dunnett's post-tests (GraphPad PRISM). Unless otherwise stated, data are presented as Mean±S.E.M. of ≥3 independent experiments, with 3 to 4 replicates per condition per experiment. […] Regions were defined by: minimum or maximum track length, minimum or maximum displacement and a slope of 0.5 (displacement divided by length). Tracks with slope <0.5 were taken as less straight (region 2) than those with slope of >0.5 (region 3). Tracks within each region are represented as a percent of total number of tracks in Tables 1 and 2. One-way ANOVA or t-tests were used to compare regions between treatment groups. […] To examine the efficiency of autophagosome transport, Spots and Tracks algorithms in Imaris were used to calculate how far each autophagosome traveled (track displacement length) as a function of the movement required to travel that distance (total track length) (Liu et al., 2010).

primary RPE monolayers [5] = experiment: Reactive oxygen species assay (CELLROX) after 10% NHS; details: RPE with A2E, short treatment with desipramine
Procedure: Reactive oxygen species (ROS) generation was measured using […] Deep Red (Molecular Probes, #10422) according to manufacturer's recommendation. After 10% NHS treatment, medium containing NHS was removed and cells were rinsed with HBSS before incubation in 5 μM […] reagent at 37° C. for 30 min. Cells were rinsed 3 times with PBS and fluorescence was read with microplate reader at Ex/Em of 640/665. For normalization purposes, cells were fixed, stained with DAPI, and fluorescence was read at Ex/Em: 360/460.

[6] = percent of total EGFP-LC3 tracks, serum-starved RPE

Q: Which results are given for `CNCCCN1c2ccccc2CCc2ccccc21` [desipramine]?
A: surface CD59 levels [1]: increased surface CD59 levels; acetylated tubulin in RPE with A2E [2]: decreased acetylated tubulin in cells with A2E; lysosome exocytosis (primary RPE monolayers [3]): restored lysosome exocytosis; number of motile tracks and long-range displacement of autophagosomes ([4]; RPE cells with A2E): increased both the number of motile tracks and long-range displacement of autophagosomes; Region 1 (R1) (D <2.5 μm, L <10 μm) [4, 6]: 84.28%; Region 3 (R3) (L >10 μm, Slope >0.5 μm) [4, 6]: 7.93%; ROS levels after complement attack (primary RPE monolayers [5]): decreased ROS levels after complement attack; ROS levels after complement attack (primary RPE monolayers [5]; listed as Desipramine): prevented mitochondrial oxidative damage after complement attack
